Tests used:
aged mice = conditions: seminal vesicles, seminiferous tubules, sperm production, reproductive capacity; cited from earlier work
[1] = test system: carrageenan-induced rat prostatitis model; test: Carrageenan-induced rat prostatitis model: prostate weight assessment (prostate index); assay type: in vivo; conditions: for prostate index (ratio of prostate gland wet weight/body weight): seven days after carrageenan, model group 2.15±0.30 mg/g
Source text: (§1) Adult male Sprague-Dawley rats (250-350 g body weight) were used for the experiments. All animals were acclimated for 1 week before any experimental procedures.
(§2) All the SD rats were randomly divided into different groups (n=8-10): control group, model group, and compounds-treated groups. For injection of carrageenan or saline, rats were anesthetized with 4% chloral hydrate and were fixed in a supine position. Then, the lower abdomen above the penis of rats was shaved and the skin in this area sterilized using 3 applications of 75% medical alcohol. A small midline incision was made in the sterile area, then the bladder and the prostate carefully exposed. With a 30-gauge needle, 50 ul sterile suspension of 3% carrageenan (Sigma, MO, USA) or saline (sham group) was injected into both right and left ventral lobes of the prostate gland. Different doses of RIPA-56 (12.5 mg/kg, 25 mg/kg, IP) or Finasteride (5 mg/kg, PO) were administrated to rats before (−17 min) and after (once every 12 h) carrageenan injection. While an equal amount of solvents were intraperitoneally and orally injected to control rats.
Seven days after carrageenan injection, rats were sacrificed and the prostates were harvested. Ventral and dorsolateral lobes of prostate glands were removed by cutting the ducts at the urethral connection and weighed immediately after removal. The prostate index (ratio of prostate gland wet weight/body weight) was calculated.

TNFα = test: Carrageenan-induced rat prostatitis model: TNFα in prostate homogenate (ELISA); assay type: in vivo; conditions: 25 mg/kg intraperitoneal B.I.D; per mg prostate homogenate protein; model 3.04±2.28, sham 0.52±0.26
Source text: as §1
as §2, with “Different doses of RIPA-56 (12.5 mg/kg, 25 mg/kg, IP) or Finasteride (5 mg/kg, PO) were administrated to rats before (−17 min) and after (once every 12 h) carrageenan injection. While an equal amount of solvents were intraperitoneally and orally injected to control rats.” left out
Part of rat prostate were weighed, mixed with cell lysis buffer (500 μl buffer per 100 mg tissue) and homogenized using FastPrep-24 homogenizer (MP Biomedicals). […] The supernatant was collected, and the total protein concentration was measured with the Bradford protein assay method. […] The level of cytokines was determined using rat TNFα, IL-1β and IL-6 ELISA kit (Biolegend or ProteinTech), and normalized to prostate protein concentration.

[2] = test system: carrageenan-induced rat prostatitis model; test: Carrageenan-induced rat prostatitis model: histological analysis of prostate (H & E); assay type: in vivo; conditions: FIG. 1 C
Source text: as §1
as §2, with “While an equal amount of solvents were intraperitoneally and orally injected to control rats.” left out
For histological analysis, one part of the prostate was fixed in 10% neutral buffered formalin for 24 h, dehydrated in ethanol, cleared in xylene, and embedded in paraffin blocks. […] Each slide was evaluated randomly in 3 different areas by an independent investigator unaware of the animal grouping using a microscope.

[3] = test system: carrageenan-induced male rat prostate disease model; test: Carrageenan-induced male rat prostate disease model: representative RIP1, RIP3 and MLKL inhibitors; assay type: in vivo; conditions: list after the methods of the example; protocols based on RIPA-56
Method: Experimental protocols for the compounds of Table 1 were based on those used for RIPA-56. Each inhibitor was intraperitoneally or orally administrated to rat before carrageenan treatment, at the dose of 20 mg/kg to 100 mg/kg.
Each inhibitor was intraperitoneally or orally administrated to rat before carrageenan treatment, at the dose of 20 mg/kg to 100 mg/kg.
as §2, with “Then, the lower abdomen above the penis of rats was shaved and the skin in this area sterilized using 3 applications of 75% medical alcohol.” left out, “Different doses of RIPA-56 (12.5 mg/kg, 25 mg/kg, IP) or Finasteride (5 mg/kg, PO) were administrated to rats before (−17 min) and after (once every 12 h) carrageenan injection.” left out

rat EAP model = conditions: cited from earlier work

CCC(C)(C)C(=O)N(O)Cc1ccccc1 [RIPA-56]
protection of aged mice from reproductive system aging (aged mice): can protect aged mice from seminal vesicles enlargement
prostate index (ratio of prostate gland wet weight/body weight) ([1]; 12.5 mg/kg intraperitoneal B.I.D): 1.99 ± 0.41 mg/g
prostate index (ratio of prostate gland wet weight/body weight) ([1]; 25 mg/kg intraperitoneal B.I.D): 1.82 ± 0.22 mg/g
inhibition to the prostate enlargement and edema ([1]; 12.5 and 25 mg/kg intraperitoneal B.I.D): dose-dependent inhibition
TNFα level in the prostate homogenate (TNFα): 1.02 ± 0.37 pg/mg
inflammatory response in the prostate (histopathology) ([2]; RIPA-56 treated rats vs disease-model group): less severe than the disease-model group
inflammatory cells in the interstitial space (histopathology) ([2]; RIPA-56 treated rats): Only few inflammatory cells

CC(C)(C)NC(=O)[C@H]1CC[C@H]2[C@@H]3CC[C@H]4NC(=O)C=C[C@]4(C)[C@H]3CC[C@]12C [finasteride]
decrease of the prostate index of carrageenan-treated rats ([1]; 5 mg/kg orally B.I.D): 23%

CCC(C)(C)C(=O)N(O)Cc1ccc(F)c(F)c1 [N-(3,4-Difluorobenzyl)-N-hydroxy-2,2-dimethylbutanamide]
listed under heading Active RIP1 Inhibitors [3]: Active

CC(C)(C)C(=O)N1N=CC[C@H]1c1ccccc1 [GSK963, (S)-2,2-dimethyl-1-(5-phenyl-4,5-dihydro-1H-pyrazol-1-yl)propan-1-on]
listed under heading Active RIP1 Inhibitors [3]: Active

CCOc1ccccc1OCCN[C@H](C)Cc1ccc(OC)c(S(N)(=O)=O)c1 [tamsulosin]
anti-inflammatory efficacy (rat EAP model): partial anti-inflammatory efficacy

C=CC(C)(C)C(=O)N1C(=O)C[C@H]1c1ccccc1 [(S)-1-(2,2-dimethylbut-3-enoyl)-4-phenylazetidin-2-one]
listed under heading Active RIP1 Inhibitors [3]: Active

O=C(N1CCCC1c1cccc(F)c1)C1(C(F)(F)F)CCCC1 (stereo not drawn) [(2-(3-fluorophenyl)pyrrolidin-1-yl)(1-(trifluoromethyl)cyclopentyl)methanone]
listed under heading Active RIP1 Inhibitors [3]: Active

O=C(N[C@H]1COc2cc(Cl)ccc2NC1=O)c1nnc(Cc2ccccc2)[nH]1 [(S)-5-benzyl-N-(8-chloro-4-oxo-2,3,4,5-tetrahydrobenzo[b][1,4]oxazepin-3-yl)-4H-1,2,4-triazole-3-carboxamide]
listed under heading Active RIP1 Inhibitors [3]: Active

O=c1c2c3c(sc2ncn1Cc1ccccc1)CCC3 [3-benzyl-6,7-dihydro-3H-cyclopenta[4,5]thieno[2,3-d]pyrimidin-4(5H)-one]
listed under heading Active RIP1 Inhibitors [3]: Active

Source: patent US20220288077A1, “PROSTATITIS TREATMENT” (NATIONAL INSTITUTE OF BIOLOGICAL SCIENCES, priority 2019, published 2022)
